Among the data in ChEMBL document CHEMBL4002580, “Chloromethylhalicyclamine B, a Marine-Derived Protein Kinase CK1δ/ε Inhibitor” (J Nat Prod, 2016) are inhibition and IC50 values, retold here.

Active and inactive are the calls of the source. No cut-off for these calls is given here.

In assay [1] the target is Cyclin-dependent kinase 5/CDK5 activator 1 (Homo sapiens) (UniProt Q00535+Q15078). The assay is described as follows: Inhibition of recombinant human CDK5/p25 expressed in Escherichia coli at 0.003 to 10 uM using histone H1 as substrate after 30 mins in presence of [gamma-33P]ATP by scintillation counting method.
Cyclin-dependent kinase 5/CDK5 activator 1 (Homo sapiens), sequence (Q00535 whole entry): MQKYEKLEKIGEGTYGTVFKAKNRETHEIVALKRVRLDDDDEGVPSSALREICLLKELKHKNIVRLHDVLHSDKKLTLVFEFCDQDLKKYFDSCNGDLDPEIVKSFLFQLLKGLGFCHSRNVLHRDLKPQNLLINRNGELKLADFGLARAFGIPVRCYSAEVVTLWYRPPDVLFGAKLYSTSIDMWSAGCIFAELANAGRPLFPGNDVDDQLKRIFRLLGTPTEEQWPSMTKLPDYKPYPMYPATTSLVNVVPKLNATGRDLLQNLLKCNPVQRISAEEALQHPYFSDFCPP
Cyclin-dependent kinase 5/CDK5 activator 1 (Homo sapiens), sequence (Q15078 99-307 partner limits assumed): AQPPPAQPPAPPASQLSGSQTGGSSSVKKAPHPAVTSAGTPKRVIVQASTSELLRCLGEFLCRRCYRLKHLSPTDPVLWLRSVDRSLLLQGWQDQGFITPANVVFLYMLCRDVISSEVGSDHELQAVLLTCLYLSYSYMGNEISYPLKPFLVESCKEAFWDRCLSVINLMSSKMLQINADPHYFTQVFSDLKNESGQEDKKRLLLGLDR
Assay [2] deals with CDK9/cyclin T1 (Homo sapiens) (UniProt O60563+P50750). The assay can be described thus: Inhibition of recombinant human CDK9/cyclin T expressed in insect cells at 0.003 to 10 uM using CDK7/9-Tide as substrate after 30 mins in presence of [gamma-33P]ATP by scintillation counting method.
For the next assay, the species on record is Sus scrofa. The assay is described as follows: Inhibition of porcine brain CK1delta/epsilon at 0.003 to 10 uM using CKS peptide as substrate after 30 mins in presence of [gamma-33P]ATP by scintillation counting method.
Assay [3] addresses Dual specificity protein kinase CLK1 (Mus musculus) (UniProt P22518). The assay can be described thus: Inhibition of mouse recombinant GST-fused CLK1 expressed in Escherichia coli at 0.003 to 10 uM using RS peptide as substrate after 30 mins in presence of [gamma-33P]ATP by scintillation counting method.
The target of assay [4] is Dual specificity tyrosine-phosphorylation-regulated kinase 1A (Homo sapiens) (UniProt Q13627). The assay can be described thus: Inhibition of GST-fused DYRK1A (unknown origin) expressed in Escherichia coli at 0.003 to 10 uM using RS peptide as substrate after 30 mins in presence of [gamma-33P]ATP by scintillation counting method.
The species entered for a further assay is Homo sapiens. The assay can be described thus: Inhibition of GSK3 (unknown origin) at 0.003 to 10 uM using GS-1 as substrate after 30 mins in presence of [gamma-33P]ATP by scintillation counting method.
A short description of assay [5]: Inhibition of porcine brain CK1delta/epsilon using CKS peptide as substrate after 30 mins in presence of [gamma-33P]ATP by scintillation counting method. The arrangement: species or system Sus scrofa.
Assay [6] addresses CDK2/Cyclin A2 (Homo sapiens) (UniProt P24941+P20248). The assay can be described thus: Inhibition of CDK2/cyclin A (unknown origin) at 0.003 to 10 uM after 30 mins in presence of [gamma-33P]ATP by scintillation counting method. The assay is classed as protein-complex assay.
For another assay, the system named is Leishmania major. The assay is described as follows: Inhibition of Leishmania major recombinant CK1 expressed in Escherichia coli at 0.003 to 10 uM using CKS peptide as substrate after 30 mins in presence of [gamma-33P]ATP by scintillation counting method.
For assay [7], the target named is Dual specificity protein kinase CLK2 (Mus musculus) (UniProt O35491). The assay can be described thus: Inhibition of mouse recombinant GST-fused CLK2 expressed in Escherichia coli at 0.003 to 10 uM using RS peptide as substrate after 30 mins in presence of [gamma-33P]ATP by scintillation counting method.
Dual specificity protein kinase CLK2 (Mus musculus), sequence (O35491 whole entry, looked up, the tested form may be a part): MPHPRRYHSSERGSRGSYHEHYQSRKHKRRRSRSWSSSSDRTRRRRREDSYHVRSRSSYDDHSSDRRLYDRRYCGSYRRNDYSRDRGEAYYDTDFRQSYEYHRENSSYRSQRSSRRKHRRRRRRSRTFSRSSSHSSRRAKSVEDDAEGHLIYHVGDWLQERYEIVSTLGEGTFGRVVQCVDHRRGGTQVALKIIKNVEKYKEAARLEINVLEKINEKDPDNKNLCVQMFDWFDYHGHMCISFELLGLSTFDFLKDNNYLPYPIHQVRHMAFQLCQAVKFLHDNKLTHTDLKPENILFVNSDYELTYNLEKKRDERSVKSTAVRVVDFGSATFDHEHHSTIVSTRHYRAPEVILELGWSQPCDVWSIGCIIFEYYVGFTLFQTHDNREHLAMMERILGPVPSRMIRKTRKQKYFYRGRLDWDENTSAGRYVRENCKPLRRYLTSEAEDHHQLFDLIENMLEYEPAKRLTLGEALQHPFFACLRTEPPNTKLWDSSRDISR
For assay [8], the target named is Dual specificity protein kinase CLK3 (Mus musculus) (UniProt O35492). The assay can be described thus: Inhibition of mouse recombinant GST-fused CLK3 expressed in Escherichia coli at 0.003 to 10 uM using RS peptide as substrate after 30 mins in presence of [gamma-33P]ATP by scintillation counting method.
Dual specificity protein kinase CLK3 (Mus musculus), sequence (O35492 whole entry, the tested form may be a part): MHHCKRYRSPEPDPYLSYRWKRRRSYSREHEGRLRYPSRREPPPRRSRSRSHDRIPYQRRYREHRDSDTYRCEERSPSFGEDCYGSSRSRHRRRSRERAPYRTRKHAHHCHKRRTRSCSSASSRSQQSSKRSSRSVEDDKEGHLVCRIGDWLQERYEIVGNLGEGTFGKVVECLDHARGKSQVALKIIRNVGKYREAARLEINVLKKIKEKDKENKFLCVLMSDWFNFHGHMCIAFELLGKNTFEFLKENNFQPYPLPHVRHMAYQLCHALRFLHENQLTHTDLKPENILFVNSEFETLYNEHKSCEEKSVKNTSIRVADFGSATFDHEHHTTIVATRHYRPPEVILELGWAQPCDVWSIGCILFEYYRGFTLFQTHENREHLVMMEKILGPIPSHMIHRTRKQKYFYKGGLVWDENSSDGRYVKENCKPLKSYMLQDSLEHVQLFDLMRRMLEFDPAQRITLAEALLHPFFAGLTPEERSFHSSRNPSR
In assay [9] the target is Dual specificity protein kinase CLK4 (Mus musculus) (UniProt O35493). The assay is described as follows: Inhibition of mouse recombinant GST-fused CLK4 expressed in Escherichia coli at 0.003 to 10 uM using RS peptide as substrate after 30 mins in presence of [gamma-33P]ATP by scintillation counting method.
Dual specificity protein kinase CLK4 (Mus musculus), sequence (O35493 whole entry, looked up, the tested form may be a part): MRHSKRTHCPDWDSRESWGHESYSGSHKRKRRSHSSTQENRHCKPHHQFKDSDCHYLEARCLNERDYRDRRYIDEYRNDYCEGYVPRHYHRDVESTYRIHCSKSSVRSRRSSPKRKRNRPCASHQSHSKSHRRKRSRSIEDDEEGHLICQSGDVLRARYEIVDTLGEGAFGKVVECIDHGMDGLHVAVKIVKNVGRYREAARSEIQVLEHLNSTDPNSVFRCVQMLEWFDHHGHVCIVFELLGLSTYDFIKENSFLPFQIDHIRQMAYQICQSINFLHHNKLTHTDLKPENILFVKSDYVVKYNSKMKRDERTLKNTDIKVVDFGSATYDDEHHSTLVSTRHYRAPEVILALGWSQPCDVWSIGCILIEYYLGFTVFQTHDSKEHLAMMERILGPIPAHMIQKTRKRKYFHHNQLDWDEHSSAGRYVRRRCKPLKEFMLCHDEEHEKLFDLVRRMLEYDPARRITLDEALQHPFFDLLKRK
In assay [10] the target is Dual specificity tyrosine-phosphorylation-regulated kinase 1B (Homo sapiens) (UniProt Q9Y463). The assay is described as follows: Inhibition of human recombinant GST-fused DYRK1B expressed in Escherichia coli at 0.003 to 10 uM using RS peptide as substrate after 30 mins in presence of [gamma-33P]ATP by scintillation counting method.
Dual specificity tyrosine-phosphorylation-regulated kinase 1B (Homo sapiens), sequence (Q9Y463 whole entry, looked up, the tested form may be a part): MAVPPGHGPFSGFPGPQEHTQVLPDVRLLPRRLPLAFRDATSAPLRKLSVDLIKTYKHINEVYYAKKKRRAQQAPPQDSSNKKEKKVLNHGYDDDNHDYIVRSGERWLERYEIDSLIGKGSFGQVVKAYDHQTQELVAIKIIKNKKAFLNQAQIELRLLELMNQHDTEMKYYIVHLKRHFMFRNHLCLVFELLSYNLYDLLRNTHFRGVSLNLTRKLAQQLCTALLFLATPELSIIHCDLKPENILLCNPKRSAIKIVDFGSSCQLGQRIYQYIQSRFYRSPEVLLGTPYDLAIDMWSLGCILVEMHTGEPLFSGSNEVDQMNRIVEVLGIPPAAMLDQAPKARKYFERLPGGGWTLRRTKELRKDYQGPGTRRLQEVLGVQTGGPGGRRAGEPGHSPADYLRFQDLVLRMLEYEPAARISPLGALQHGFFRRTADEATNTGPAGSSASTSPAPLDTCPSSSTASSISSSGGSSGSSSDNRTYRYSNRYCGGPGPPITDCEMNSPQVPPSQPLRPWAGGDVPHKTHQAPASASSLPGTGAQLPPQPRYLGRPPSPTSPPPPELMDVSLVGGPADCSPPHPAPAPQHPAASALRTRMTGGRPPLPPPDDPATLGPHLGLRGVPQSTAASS
Assay [11] concerns the target T1, Dual specificity tyrosine-phosphorylation-regulated kinase 2 (Homo sapiens) (UniProt Q92630).
T1 sequence (whole entry): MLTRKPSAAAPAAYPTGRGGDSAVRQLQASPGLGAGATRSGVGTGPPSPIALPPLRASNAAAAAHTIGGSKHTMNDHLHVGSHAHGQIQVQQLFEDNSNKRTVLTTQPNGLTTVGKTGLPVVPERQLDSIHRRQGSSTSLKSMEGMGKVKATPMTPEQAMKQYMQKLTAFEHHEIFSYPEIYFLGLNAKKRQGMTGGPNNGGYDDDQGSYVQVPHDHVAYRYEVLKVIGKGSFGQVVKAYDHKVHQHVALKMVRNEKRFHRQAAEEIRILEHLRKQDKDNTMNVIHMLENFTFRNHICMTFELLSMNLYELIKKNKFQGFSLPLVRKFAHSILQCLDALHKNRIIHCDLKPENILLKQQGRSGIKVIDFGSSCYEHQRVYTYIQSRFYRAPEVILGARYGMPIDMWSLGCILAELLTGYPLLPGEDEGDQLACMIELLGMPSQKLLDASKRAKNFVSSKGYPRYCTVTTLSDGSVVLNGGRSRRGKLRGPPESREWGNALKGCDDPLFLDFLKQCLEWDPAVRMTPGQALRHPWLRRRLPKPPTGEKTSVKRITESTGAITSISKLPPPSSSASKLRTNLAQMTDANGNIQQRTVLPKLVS
The assay is described as follows: Inhibition of human recombinant GST-fused DYRK2 expressed in Escherichia coli at 0.003 to 10 uM using RS peptide as substrate after 30 mins in presence of [gamma-33P]ATP by scintillation counting method.

Assay [12] addresses T2, Dual specificity tyrosine-phosphorylation-regulated kinase 3 (Homo sapiens) (UniProt O43781).
T2 sequence (whole entry): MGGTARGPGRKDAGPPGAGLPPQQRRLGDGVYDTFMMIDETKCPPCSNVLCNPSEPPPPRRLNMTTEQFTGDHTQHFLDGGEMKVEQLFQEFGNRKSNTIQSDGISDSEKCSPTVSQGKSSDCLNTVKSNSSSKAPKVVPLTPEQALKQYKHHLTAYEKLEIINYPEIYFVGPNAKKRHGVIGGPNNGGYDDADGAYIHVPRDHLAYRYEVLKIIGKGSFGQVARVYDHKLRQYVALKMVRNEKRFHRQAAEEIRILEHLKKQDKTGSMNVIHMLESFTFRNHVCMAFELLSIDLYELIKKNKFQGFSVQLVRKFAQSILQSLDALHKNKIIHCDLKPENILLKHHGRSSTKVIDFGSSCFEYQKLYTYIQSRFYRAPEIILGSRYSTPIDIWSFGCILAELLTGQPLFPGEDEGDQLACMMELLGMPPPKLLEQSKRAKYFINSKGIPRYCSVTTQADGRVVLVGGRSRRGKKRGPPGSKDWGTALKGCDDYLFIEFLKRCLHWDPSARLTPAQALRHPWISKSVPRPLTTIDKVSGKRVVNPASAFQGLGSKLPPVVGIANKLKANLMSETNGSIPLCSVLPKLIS
The assay is described as follows: Inhibition of human recombinant GST-fused DYRK3 expressed in Escherichia coli at 0.003 to 10 uM using RS peptide as substrate after 30 mins in presence of [gamma-33P]ATP by scintillation counting method.

Dual specificity protein kinase CLK1 (Mus musculus), sequence (P22518 whole entry, looked up, the tested form may be a part): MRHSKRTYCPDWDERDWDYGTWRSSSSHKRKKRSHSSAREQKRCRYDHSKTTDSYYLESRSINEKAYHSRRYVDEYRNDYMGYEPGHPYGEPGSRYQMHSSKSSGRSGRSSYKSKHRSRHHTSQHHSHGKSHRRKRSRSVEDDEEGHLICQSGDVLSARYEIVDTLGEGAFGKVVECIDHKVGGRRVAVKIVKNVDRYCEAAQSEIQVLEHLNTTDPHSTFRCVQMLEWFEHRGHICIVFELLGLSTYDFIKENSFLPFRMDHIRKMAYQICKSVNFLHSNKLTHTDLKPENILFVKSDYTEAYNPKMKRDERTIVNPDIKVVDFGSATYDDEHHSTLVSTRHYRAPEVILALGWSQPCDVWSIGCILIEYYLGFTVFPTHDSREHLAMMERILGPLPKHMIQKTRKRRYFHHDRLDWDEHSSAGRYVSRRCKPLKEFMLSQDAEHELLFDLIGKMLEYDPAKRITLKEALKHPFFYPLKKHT

For the compound `C1=C2CN3CCCC/C=C\CC[C@@H]4CN(CCCC/C=C\CC[C@H]1C3)CC[C@@H]24`, the inhibition result (in assay [1]; in assay [2]; in the assay filed under Sus scrofa; in assay [3]; in [4]; in the assay filed under Homo sapiens) was “inactive” throughout.
For the compound `ClC[N@@+]12CCCC/C=C\CC[C@@H]3C=C4CN(CCCC/C=C\CC[C@H](C1)[C@H]4CC2)C3`, in assay [5], the half-inhibitory concentration (IC50) stood at 6 µM. Besides, the inhibition result (in [6]; with Leishmania major; in assay [7]; in assay [8]; in assay [9]; in assay [10]) was “inactive” throughout. Besides, the inhibition entry in [11] and in assay [12] was “inactive” throughout.
